{
  "source": "patent US8128913B1",
  "about": "“Sunscreen composition with enhanced UV-A absorber stability and methods” (Skinvisible Pharmaceuticals, Inc., priority 2007, dated 2012)",
  "key": {"[1]": {"settings": "in vivo; cited from earlier work"}, "[2]": {"assay": "photostability of sunscreen film on polyethylene under UV light at 365 nm, extraction and C18 chromatography", "assay_type": "physicochemical", "settings": "Example 1 composition (no tricontanyl polymer), between 4 and 8 hours of UV exposure, 2340 Watts/m^2", "procedure": "To test the photostability of the sunscreen composition, 200-250 μl of the sunscreen composition was spread evenly over a 25 cm^2 piece of polyethylene film. The amount of sunscreen preparation was determined by weight, and the polyethylene film was dried for 1 hour at 35° C. After drying the film was exposed to […] (2340 Watts/m^2) of UV light at 365 nm for 0, 2, 4, 6 and 8 hours. Following light exposure, sunscreen was extracted with ethanol containing 1% acetic acid. Extracts were separated and quantitated with a C18 column with a methanol:water linear gradient.\nThe composition contains 3 wt. % avobenzone, 6 wt. % octocrylene, and 4 wt. % oxybenzophenone as sunscreen agents. Photo stability test of the composition was carried out as described in Example 1."}},
  "data": [
    {"compound": "Poly(vinylpyrrolidone/1-hexadecene) [PVPH]", "values": [
      {"measurement": "dermal toxicity", "setting": "[1]", "result": "no demonstrable dermal toxicity"}
    ]},
    {"compound": "COc1ccc(C(=O)CC(=O)c2ccc(C(C)(C)C)cc2)cc1", "note": "[avobenzone]", "values": [
      {"measurement": "loss of sunscreen agent with UV exposure", "setting": "[2]", "result": "~50", "unit": "%"}
    ]},
    {"compound": "Poly(vinylpyrrolidone/eicosene) [PVPE]", "values": [
      {"measurement": "dermal toxicity", "setting": "[1]", "result": "no demonstrable dermal toxicity"}
    ]}
  ]
}
